Reference: ChEMBL document CHEMBL1201862, “PubChem BioAssay data set” (2004)
Active and inactive are the calls of the source.

Experiments:
[1] = inhibitors of CMV-promoter luciferase reporter, dose response, counter-screen for Pax8 inhibitor project, cell-based, HEK293, luminescence, dry powder (AID 743020); type: functional
Paired box protein Pax-8 = Paired box protein Pax-8 (Homo sapiens, UniProt Q06710); assay: inhibitors of PAX8-driven TPO luciferase reporter, dose response, RMG-I cells, cherry-pick (AID 687027); type: functional, cell-based;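 also: luciferase reporter driven by Pax8 target thyroperoxidase promoter measured by SteadyGlo luminescence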
[2] = molecular target: Disintegrin and metalloproteinase domain-containing protein 17 (Homo sapiens, UniProt P78536); assay: exosite inhibitors of ADAM17, dose response, biochemical (AID 743260)
[3] = molecular target: T1, Rac GTPase-activating protein 1 (Homo sapiens, UniProt Q9H0H5); assay: MgcRacGAP GTPase-activating activity inhibitors, confirmation, biochemical, ADP Hunter fluorescence, primary and confirmatory (AID 624330); type: functional
T1 sequence (Q9H0H5 whole entry): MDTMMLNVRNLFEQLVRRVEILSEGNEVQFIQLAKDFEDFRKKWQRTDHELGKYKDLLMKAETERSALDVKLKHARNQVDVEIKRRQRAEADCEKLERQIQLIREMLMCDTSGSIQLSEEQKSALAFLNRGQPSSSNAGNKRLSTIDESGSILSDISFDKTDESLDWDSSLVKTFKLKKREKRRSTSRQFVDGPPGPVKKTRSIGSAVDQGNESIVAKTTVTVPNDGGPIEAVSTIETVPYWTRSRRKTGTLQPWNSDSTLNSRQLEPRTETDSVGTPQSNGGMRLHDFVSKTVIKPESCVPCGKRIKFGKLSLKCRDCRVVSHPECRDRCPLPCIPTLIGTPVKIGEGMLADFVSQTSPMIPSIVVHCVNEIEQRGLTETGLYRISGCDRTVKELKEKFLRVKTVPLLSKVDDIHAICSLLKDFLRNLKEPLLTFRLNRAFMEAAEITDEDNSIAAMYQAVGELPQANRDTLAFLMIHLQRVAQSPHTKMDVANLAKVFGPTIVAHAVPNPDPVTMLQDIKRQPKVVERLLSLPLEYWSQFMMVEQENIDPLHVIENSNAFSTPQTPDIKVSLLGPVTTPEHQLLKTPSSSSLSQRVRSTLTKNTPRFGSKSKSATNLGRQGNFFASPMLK

[4] = C. albicans growth with fluconazole, confirmation, fluorescence, retest (AID 2467); type: functional, cell-based
BJ [5] = assay: cells; type: functional, cell-based; settings: Homo sapiens
[6] = cytotoxicity toward DRD oncogenic fibroblasts, dose response, cell-based, non-viral oncogenic, luminescence (AID 1934); type: functional; settings: Homo sapiens
BJ [7] = assay: cytotoxicity toward BJ-TERT fibroblasts, dose response, cell-based, RAS-independent, luminescence (AID 1933); type: functional; settings: Homo sapiens
[8] = HeLa cell cytotoxicity, dose response, cytotoxicity control for MgcRacGAP inhibitor project (AID 624300); type: functional
[9] = NIH-3T3 fibroblast cytotoxicity, dose response, cytotoxicity control, cell-based, fluorescence, Alamar Blue, secondary assay (AID 2327); type: functional;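 also: NIH-3T3 mouse fibroblasts cultured with fluconazole at 8 µg/mL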
[10] = human group III sPLA2 inhibitors, dose response, biochemical, QFRET, IC50 (AID 743457);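 also: green fluorescence rise as the enzyme cleaves BODIPY PC-A2 in liposomes; potency for inhibition of the enzyme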
[11] = molecular target: T2, Histone-lysine N-methyltransferase NSD2 (Homo sapiens, UniProt O96028); type: biochemical
T2 sequence (O96028 whole entry): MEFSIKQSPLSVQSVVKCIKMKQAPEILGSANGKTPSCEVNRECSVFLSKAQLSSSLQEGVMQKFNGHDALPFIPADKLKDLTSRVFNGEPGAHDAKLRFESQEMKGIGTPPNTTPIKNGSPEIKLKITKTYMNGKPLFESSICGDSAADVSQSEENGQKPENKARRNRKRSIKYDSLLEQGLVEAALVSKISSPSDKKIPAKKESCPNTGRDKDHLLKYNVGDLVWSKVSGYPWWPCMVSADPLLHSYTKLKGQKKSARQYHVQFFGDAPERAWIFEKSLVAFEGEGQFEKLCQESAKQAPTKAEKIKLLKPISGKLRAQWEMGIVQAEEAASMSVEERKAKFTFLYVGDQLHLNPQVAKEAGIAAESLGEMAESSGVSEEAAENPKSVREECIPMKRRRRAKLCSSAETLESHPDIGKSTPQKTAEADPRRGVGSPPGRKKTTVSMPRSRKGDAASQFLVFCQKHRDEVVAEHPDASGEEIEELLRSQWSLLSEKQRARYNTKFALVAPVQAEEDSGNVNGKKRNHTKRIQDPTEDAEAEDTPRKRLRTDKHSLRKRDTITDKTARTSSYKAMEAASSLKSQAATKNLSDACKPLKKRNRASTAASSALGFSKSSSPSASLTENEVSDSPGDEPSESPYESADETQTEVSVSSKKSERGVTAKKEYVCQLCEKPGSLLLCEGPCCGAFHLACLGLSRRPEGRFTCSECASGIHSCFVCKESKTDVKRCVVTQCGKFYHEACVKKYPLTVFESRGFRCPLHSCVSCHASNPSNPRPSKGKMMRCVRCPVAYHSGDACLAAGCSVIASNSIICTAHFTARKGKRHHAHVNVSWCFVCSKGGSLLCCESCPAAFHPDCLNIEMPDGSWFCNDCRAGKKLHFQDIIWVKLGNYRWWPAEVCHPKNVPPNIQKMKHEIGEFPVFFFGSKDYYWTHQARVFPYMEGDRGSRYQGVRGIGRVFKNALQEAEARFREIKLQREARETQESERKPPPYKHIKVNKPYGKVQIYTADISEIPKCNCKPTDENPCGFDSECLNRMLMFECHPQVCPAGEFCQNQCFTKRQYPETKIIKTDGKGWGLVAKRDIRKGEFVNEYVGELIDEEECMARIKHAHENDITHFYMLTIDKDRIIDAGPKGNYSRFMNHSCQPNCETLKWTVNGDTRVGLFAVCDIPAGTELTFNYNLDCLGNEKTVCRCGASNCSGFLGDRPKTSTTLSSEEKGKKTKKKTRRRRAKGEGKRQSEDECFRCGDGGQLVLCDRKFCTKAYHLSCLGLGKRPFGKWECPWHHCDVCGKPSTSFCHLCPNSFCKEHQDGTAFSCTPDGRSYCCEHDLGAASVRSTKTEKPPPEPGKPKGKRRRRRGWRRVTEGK

BJ [12] = assay: cytotoxicity toward BJ-TERT-LT-ST fibroblasts, dose response, cell-based, RAS-independent, luminescence (AID 1935); type: functional; settings: Homo sapiens;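 also: BJ fibroblasts immortalized with TERT plus LT and ST oncogenes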
Nonstructural protein 1 = Nonstructural protein 1 (Influenza A virus, UniProt Q194T2); type: functional, Influenza A virus (A/California/07/2009(H1N1))
[13] = Fluorescence-based cell-based high throughput dose response assay for inhibitors of the interaction of nucleotide-binding oligomerization domain containing 2 (NOD2) and the receptor-interacting serine-threonine kinase 2 (RIPK2).; type: functional; settings: Homo sapiens
[14] = HEK293T cell cytotoxicity, dose response, cytotoxicity control for HIV Vif inhibitor project, cherry-picks (AID 652208); type: functional, cell-based
[15] = THP-1 cell cytotoxicity, dose response, cytotoxicity control for Vif-APOBEC3G degradation inhibitor project, THP-1 cells (AID 1117359); type: functional; settings: Human immunodeficiency virus 1, THP-1
[16] = HeLa cell cytotoxicity, dose response, cytotoxicity control, 24 h, plate reader, dry powder (AID 686928); type: functional, cell-based
Fatty acid synthase = Fatty acid synthase (Homo sapiens, UniProt P49327); assay: FAS thioesterase domain inhibitors, SAR follow-up, biochemical, endpoint fluorescence intensity, powder samples (AID 652164); type: functional
Protein Wnt-3a = Protein Wnt-3a (Mus musculus, UniProt P27467); assay: SAR analysis of small molecule antagonists of Gli-SUFU in a Wnt3a luminescent reporter assay.; type: functional
[17] = MC4R antagonists, dose response, counter-screen for LGR2 antagonist project, cell-based, plate reader, cherry pick (AID 743444); type: functional;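 also: transfected HEK 293 cells stimulated with alpha-MSH peptide; potency of inhibitors of the alpha-MSH evoked signal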
[18] = HepG2 cell cytotoxicity, dose response, cytotoxicity control, plate reader, cherry-pick, antagonist series (AID 743416); type: functional, cell-based
[19] = LGR2 antagonists, dose response, cell-based, HEK293, CRE-luciferase reporter, cherry pick (AID 743342); type: functional
[20] = HEK293 cell cytotoxicity, dose response, cytotoxicity control, plate reader, cherry-picked samples (AID 743446); type: functional, cell-based
[21] = A549 cell cytotoxicity, dose response, cytotoxicity control, plate reader, cherry-pick, antagonist series (AID 743412); type: functional, cell-based
[22] = A549 cell cytotoxicity, dose response, cytotoxicity control, cherry-picks, 26 µM top dose (AID 1053119); type: functional, cell-based
[23] = HepG2 cell cytotoxicity, dose response, cytotoxicity control, cherry-picks, set 5 (AID 1053118); type: functional, cell-based
[24] = HEK293 cell cytotoxicity, dose response, cytotoxicity control, cherry-picks, set 5 (AID 1053117); type: functional, cell-based
[25] = Cytotoxicity screening for potential Inhibitors of Bacterial Capsule Biogenesis (4).; type: functional
[26] = TRPM1 promoter luciferase reporter signal decrease, dose response, MITF inhibitor project, cell-based, SK-MEL-5, dry powder, set 9 (AID 651588); type: functional
[27] = A375 melanoma cell viability loss, dose response, counter-screen for MITF modulator project, CellTiter-Glo luminescence, dry powder, set 9 (AID 651591); type: functional, cell-based; settings: A-375
[28] = SK-MEL-5 parental cell viability reduction, dose response, orthogonal assay for MITF inhibitor project, CellTiter-Glo luminescence, dry powder, set 8 (AID 651586); type: functional, cell-based
[29] = A375 melanoma cell cytotoxicity, dose response, counter-screen for MITF inhibitor project, CellTiter-Glo luminescence, dry powder, set 2 (AID 624489); type: functional, cell-based; settings: A-375;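 also: actives are compounds lowering A375 viability meaning general cytotoxicity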
[30] = SK-MEL-5 parental line viability, dose response, MITF inhibitor project, cell-based, CellTiter-Glo, dry powder, set 6 (AID 624429); type: functional
[31] = MITF Measured in Cell-Based System Using Plate Reader - 2084-01_Inhibitor_Dose_DryPowder_Activity_Set6.; type: functional
[32] = MITF Orthogonal Assay: SK-MEL-5 CTG Assay Measured in Cell-Based System Using Plate Reader - 2084-02_Inhibitor_Dose_DryPowder_Activity_Set5.; type: functional
[33] = A375 melanoma cell cytotoxicity, dose response, counter-screen for MITF inhibitor project, CellTiter-Glo luminescence, dry powder, set 6 (AID 624488); type: functional, cell-based; settings: A-375
[34] = MALME3 melanoma cell viability reduction, dose response, orthogonal assay for MITF inhibitor project, CellTiter-Glo luminescence, dry powder, set 5 (AID 651584); type: functional, cell-based; settings: MALME-3
[35] = A375 melanoma cell cytotoxicity, dose response, counter-screen for MITF inhibitor project, CellTiter-Glo luminescence, dry powder, set 7 (AID 624490); type: functional, cell-based; settings: A-375
[36] = A375 melanoma cell viability loss, dose response, counter-screen for MITF inhibitor project, CellTiter-Glo luminescence, dry powder, set 4 (AID 624364); type: functional, cell-based; settings: A-375;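 also: A375 melanoma cells are MITF independent so this is a counter screen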
[37] = MITF Orthogonal Assay: MALME3 CTG Assay Measured in Cell-Based System Using Plate Reader - 2084-04_Inhibitor_Dose_DryPowder_Activity_Set6.; type: functional; settings: MALME-3
[38] = MITF Measured in Cell-Based System Using Plate Reader - 2084-01_Inhibitor_Dose_DryPowder_Activity_Set7.; type: functional

Sequence of Paired box protein Pax-8 (Q06710 whole entry, the tested form may be a part): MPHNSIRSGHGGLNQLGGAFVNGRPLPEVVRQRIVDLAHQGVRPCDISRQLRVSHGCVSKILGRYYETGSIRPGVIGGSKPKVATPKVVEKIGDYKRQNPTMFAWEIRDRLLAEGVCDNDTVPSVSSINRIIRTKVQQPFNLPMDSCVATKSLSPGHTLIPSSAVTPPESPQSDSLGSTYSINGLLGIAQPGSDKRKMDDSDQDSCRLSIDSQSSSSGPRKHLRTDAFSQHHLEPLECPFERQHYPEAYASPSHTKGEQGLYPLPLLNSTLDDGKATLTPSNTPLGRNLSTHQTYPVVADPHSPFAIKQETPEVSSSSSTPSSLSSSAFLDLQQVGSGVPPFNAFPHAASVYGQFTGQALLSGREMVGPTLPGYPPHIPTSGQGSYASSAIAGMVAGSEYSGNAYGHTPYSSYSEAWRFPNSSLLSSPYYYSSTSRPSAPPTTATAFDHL
Sequence of Disintegrin and metalloproteinase domain-containing protein 17 (P78536 whole entry, the tested form may be a part): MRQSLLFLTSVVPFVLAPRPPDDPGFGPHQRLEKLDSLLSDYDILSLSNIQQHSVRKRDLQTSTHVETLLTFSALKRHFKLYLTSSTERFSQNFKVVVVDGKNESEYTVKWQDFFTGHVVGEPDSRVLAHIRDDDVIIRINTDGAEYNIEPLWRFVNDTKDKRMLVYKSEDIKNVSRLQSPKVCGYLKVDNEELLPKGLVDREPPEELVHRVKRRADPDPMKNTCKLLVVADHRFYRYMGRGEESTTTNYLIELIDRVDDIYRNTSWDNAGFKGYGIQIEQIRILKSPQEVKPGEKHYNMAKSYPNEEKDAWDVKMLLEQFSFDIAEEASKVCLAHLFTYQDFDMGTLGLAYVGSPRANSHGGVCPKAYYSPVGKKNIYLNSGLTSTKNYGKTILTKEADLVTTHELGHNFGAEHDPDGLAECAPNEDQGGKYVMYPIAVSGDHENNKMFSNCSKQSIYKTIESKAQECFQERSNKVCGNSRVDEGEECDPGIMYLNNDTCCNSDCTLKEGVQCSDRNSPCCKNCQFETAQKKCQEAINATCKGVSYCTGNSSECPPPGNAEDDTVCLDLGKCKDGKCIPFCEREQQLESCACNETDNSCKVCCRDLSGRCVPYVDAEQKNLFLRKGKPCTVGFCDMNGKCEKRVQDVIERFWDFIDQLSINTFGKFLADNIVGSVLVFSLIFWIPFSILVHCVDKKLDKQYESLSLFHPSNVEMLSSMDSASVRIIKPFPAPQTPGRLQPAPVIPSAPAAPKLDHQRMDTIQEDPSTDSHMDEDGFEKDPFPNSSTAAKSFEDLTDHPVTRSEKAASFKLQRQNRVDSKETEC
Sequence of Fatty acid synthase (P49327 whole entry, the tested form may be a part): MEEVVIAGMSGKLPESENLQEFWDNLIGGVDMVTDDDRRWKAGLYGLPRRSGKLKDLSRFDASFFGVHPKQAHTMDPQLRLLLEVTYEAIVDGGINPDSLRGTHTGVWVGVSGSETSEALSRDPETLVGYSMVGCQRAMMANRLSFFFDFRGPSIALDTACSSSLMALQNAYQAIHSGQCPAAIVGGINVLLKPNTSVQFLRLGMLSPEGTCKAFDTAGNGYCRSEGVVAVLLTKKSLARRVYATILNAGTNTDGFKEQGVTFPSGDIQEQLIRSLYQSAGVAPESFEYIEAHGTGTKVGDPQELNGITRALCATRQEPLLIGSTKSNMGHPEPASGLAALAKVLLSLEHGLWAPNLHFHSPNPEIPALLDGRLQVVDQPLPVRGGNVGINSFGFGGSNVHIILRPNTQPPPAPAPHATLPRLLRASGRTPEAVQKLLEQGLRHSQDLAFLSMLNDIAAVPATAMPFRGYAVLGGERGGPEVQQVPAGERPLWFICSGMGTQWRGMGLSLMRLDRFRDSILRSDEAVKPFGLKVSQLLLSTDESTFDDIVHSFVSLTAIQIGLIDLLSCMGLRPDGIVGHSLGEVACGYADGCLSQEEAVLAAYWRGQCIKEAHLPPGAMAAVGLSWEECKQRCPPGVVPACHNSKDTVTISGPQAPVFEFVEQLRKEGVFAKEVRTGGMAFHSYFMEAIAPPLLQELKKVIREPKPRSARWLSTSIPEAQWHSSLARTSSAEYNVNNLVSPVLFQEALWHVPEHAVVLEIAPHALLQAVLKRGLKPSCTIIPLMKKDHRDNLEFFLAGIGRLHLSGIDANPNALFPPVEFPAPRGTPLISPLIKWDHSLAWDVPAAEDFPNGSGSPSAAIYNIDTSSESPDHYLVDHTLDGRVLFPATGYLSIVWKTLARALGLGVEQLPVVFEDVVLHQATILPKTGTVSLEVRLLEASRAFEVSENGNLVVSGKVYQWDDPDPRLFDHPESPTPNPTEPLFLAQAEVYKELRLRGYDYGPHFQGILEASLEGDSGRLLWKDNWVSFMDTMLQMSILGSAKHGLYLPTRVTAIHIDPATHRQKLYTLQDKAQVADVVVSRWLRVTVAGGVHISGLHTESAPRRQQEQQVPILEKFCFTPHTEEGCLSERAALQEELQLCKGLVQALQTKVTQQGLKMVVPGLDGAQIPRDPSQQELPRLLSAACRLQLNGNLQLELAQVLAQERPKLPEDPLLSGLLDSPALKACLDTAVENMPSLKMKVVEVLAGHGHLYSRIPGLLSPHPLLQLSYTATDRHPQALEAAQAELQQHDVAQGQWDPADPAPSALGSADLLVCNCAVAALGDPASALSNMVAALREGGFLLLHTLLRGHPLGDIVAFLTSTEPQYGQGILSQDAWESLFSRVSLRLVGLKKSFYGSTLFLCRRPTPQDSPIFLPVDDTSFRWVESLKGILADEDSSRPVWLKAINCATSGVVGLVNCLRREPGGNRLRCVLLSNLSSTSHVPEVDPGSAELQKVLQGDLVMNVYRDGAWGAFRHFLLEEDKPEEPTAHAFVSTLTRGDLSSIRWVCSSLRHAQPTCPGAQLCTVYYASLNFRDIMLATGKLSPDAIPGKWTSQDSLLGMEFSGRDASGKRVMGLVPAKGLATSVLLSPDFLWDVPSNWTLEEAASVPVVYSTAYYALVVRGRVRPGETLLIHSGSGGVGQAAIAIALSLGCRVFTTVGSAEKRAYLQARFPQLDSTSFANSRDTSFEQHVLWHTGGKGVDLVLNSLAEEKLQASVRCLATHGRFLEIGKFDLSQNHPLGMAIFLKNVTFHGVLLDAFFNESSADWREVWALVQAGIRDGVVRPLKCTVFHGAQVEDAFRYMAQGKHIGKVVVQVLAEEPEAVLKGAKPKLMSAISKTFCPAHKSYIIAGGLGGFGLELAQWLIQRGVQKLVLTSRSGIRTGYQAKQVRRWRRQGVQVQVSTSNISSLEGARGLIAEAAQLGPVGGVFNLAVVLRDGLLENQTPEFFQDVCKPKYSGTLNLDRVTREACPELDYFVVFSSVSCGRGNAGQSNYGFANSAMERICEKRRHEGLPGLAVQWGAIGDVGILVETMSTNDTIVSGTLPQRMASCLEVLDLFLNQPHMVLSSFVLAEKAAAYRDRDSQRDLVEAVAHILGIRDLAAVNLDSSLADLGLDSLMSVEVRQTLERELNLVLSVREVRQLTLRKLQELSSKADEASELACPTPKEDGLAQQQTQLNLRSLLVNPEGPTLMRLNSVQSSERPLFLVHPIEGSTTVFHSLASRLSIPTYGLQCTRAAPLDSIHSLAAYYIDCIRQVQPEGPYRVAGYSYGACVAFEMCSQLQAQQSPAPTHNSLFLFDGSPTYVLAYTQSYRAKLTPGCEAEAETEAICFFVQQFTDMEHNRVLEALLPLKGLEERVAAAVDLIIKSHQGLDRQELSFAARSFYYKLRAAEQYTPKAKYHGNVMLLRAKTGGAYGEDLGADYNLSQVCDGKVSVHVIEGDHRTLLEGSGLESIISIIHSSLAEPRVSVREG
Sequence of Nonstructural protein 1 (Q194T2 whole entry, the tested form may be a part): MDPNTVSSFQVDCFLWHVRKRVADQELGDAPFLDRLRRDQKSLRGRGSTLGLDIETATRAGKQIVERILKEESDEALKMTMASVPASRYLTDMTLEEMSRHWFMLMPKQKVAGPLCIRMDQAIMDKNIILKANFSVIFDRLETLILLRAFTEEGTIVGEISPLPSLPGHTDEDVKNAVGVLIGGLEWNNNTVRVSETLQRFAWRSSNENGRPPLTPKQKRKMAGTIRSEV
Sequence of Protein Wnt-3a (P27467 whole entry): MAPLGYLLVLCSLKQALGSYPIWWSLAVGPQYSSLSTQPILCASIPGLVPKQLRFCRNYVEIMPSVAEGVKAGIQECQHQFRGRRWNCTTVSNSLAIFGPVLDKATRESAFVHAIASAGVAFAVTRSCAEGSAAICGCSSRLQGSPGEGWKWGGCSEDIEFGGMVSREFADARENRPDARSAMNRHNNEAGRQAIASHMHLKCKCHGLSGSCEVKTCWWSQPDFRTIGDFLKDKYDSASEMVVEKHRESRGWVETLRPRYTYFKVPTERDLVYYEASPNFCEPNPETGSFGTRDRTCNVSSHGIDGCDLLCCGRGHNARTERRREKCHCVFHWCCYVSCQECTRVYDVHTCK

## CC(=O)c1cc(NC(=O)c2cccc(C(F)(F)F)c2)c(=O)oc1C
[1]
  AC50: < 9 µM (active)
Paired box protein Pax-8
  AC50: 15.8 µM (active)

## CCOc1ccc(NC(=O)CC2SC(=O)N(c3ccccc3)C2=O)cc1 (stereo not drawn)
[2]
  IC50: 5.73 µM (active)

## CN(C)c1ccc(/C=C/C=C/c2sc3ccccc3[n+]2C)cc1.[O-][Cl+3]([O-])([O-])[O-]
[3]
  IC50: 62.6 µM (active)
[4]
  EC50: 0.194 µM (active)
BJ [5]
  EC50: 4.81 µM (active)
[6]
  EC50: 4.85 µM (active)
BJ [7]
  EC50: 2.83 µM (inconclusive)
[8]
  CC50: 64 µM (active)
[9]
  EC50: > 150 µM (inactive)
[10]
  IC50: 41.6 µM (inactive)
[11]
  AC50: 15.8 µM (active)
BJ [12]
  EC50: 29.2 µM (active)
Nonstructural protein 1
  IC50: 15 µM (active)

## C=CC(=O)N1C/C(=C/c2ccc(F)cc2)C(=O)/C(=C\c2ccc(F)cc2)C1
[13]
  IC50: 3.71 µM (active)
[14]
  AC50: 1.4 µM (active)
Paired box protein Pax-8
  AC50: 2.36 µM (active)
[15]
  CC50: 0.57 µM (active)

## CC(C)c1ccc2cc3c(NC(=O)c4ccco4)nn(C)c3nc2c1
[16]
  AC50: 91.9 µM (active)

## O=C(Nc1nc(-c2ccc(S(=O)(=O)N3CCOCC3)cc2)cs1)C1CCCCC1
Fatty acid synthase
  IC50: > 80 µM (inactive)

## O=C(Nc1cc(N2CCCCCC2)ncn1)c1ccccc1
Protein Wnt-3a
  IC50: > 21.8 µM (inactive)

## C[C@H](CO)N1C[C@H](C)[C@H](CN(C)C(=O)Nc2ccc(F)cc2)OCCCC[C@H](C)Oc2ccc(NC(=O)Nc3ccccc3)cc2C1=O
[17]
  AC50: 44.4 µM (active)
[18]
  AC50: 35.2 µM (active)
[19]
  AC50: 6.77 µM (active)
[20]
  AC50: 40.6 µM (active)
[21]
  AC50: 37 µM (active)

## CO[C@@H]1CN(C)C(=O)c2ccc(NC(=O)c3ccc(-c4ccccc4)cc3)cc2OC[C@H](C)NC[C@H]1C
[22]
  AC50: 13.6 µM (active)
[23]
  AC50: 11.3 µM (active)
[24]
  AC50: 14 µM (active)

## COc1cc(NC(=O)c2ccc3nc(C)sc3c2)ccn1
[25]
  CC50: > 300 µM (inactive)

## O=C(NC1=C(Cl)C(=O)c2ccccc2C1=O)c1ccccc1
[26]
  AC50: 1.95 µM (active)
[27]
  AC50: 28.7 µM (active)
[28]
  AC50: 3.94 µM (active)
[29]
  AC50: 22.8 µM (active)
[30]
  AC50: 9.85 µM (active)
[31]
  AC50: 0.459 µM (active)
[32]
  AC50: 13.5 µM (active)
[33]
  AC50: 16.5 µM (active)
[34]
  AC50: 7.33 µM (active)
[35]
  AC50: 23.1 µM (active)
[36]
  AC50: 45.9 µM (active)
[37]
  AC50: 7.33 µM (active)
[38]
  AC50: 0.913 µM (active)
